The subject of data set [1] is Rhodotorula rubra. The conditions noted are these: fluorescence extinction at 254 nm; result in words. Here is the method:
200 ml of deionised water, 10 g of Sabouraud 2% glucose broth and 0.11 g of Gelrite® are boiled until sterile. The test organism is then added in the form of a lyophilisate or living culture and pre-incubated for 3 hours at 35° C.
The developed TLC plate is dipped briefly into the fungal suspension, and excess suspension is removed from the base of the plate. The TLC plate is subsequently incubated for 20 hours at room temperature in a can lined with moist paper.
The evaluation is carried out by fluorescence extinction at 254 nm.

Data set [2] relates to Rhodotorula rubra. The experiment in a line: Bioautographic detection of various fungicides on TLC plate, staining with optical brightener, evaluation at 366 nm. It counts as cell-based. Also on record: key to Zone of inhibition 2 ppb / Zone of inhibition 500 ppt / Zone of inhibition 100 ppt: −: no zone of inhibition; +: small zone of inhibition; ++: clearly visible zone of inhibition. As to conditions: for Zone of inhibition 2 ppb / Zone of inhibition 100 ppt / Zone of inhibition 500 ppt: optical brightener, 366 nm, 20 hours incubation. Here is the method:
The evaluation is carried out by staining with optical brightener (0.04% of Blankophor® BA 267% from Bayer AG, Germany, in 0.1 mol/l NaOH solution). To this end, the TLC plate is dried, wetted with the stain solution and subsequently stored for 5 minutes at room temperature. The evaluation is carried out at 366 nm. The zones of inhibition are evident as dark spots against a fluorescent background.

With `CCC[CH2][Sn]([Cl])([CH2]CCC)[CH2]CCC` [F1, Tributyltin Chloride], in the data set on Rhodotorula rubra [1], the “zone of inhibition with Rf about 1.0” value is “evident”.
Turning to `CC(Cc1ccc(C(C)(C)C)cc1)CN1C[C@@H](C)O[C@@H](C)C1` (some centres unmarked) [A1, fenpropimorph], in the data set on Rhodotorula rubra [2], the “Zone of inhibition 2 ppb” value was “++”, the “Zone of inhibition 100 ppt” value is recorded as “−” and the “Zone of inhibition 500 ppt” value is recorded as “−”. Also, the Detection limit in the data set on Rhodotorula rubra [2] (also printed as 2 μg/kg) is 2 ppb (2 μg/kg).
As for `C[Si](Cn1cncn1)(c1ccc(F)cc1)c1ccc(F)cc1` [A2, flusilazole], in the data set with Rhodotorula rubra [2], the “Zone of inhibition 2 ppb” value is recorded as “++”, the “Zone of inhibition 100 ppt” value was “−” and the “Zone of inhibition 500 ppt” value is recorded as “+”. Further, in the data set with Rhodotorula rubra [2] (also printed as 500 ng/kg), the Detection limit is recorded as 500 ppt (500 ng/kg).
On to `CCC[CH2][Sn]([Cl])([CH2]CCC)[CH2]CCC` [F2, Tributyltin Chloride], for which the “zone of inhibition on the starting line (Rf=0)” value with Rhodotorula rubra [1] is “evident”.
Consider `CCCC1COC(Cn2cncn2)(c2ccc(Cl)cc2Cl)O1` (centres unmarked) [A3, propiconazole], for which, in the data set with Rhodotorula rubra [2], the “Zone of inhibition 2 ppb” value was “++”, the “Zone of inhibition 100 ppt” value is reported as “−” and the “Zone of inhibition 500 ppt” value is listed as “+”. For the same compound, in the data set with Rhodotorula rubra [2] (also printed as 500 ng/kg), the Detection limit was 500 ppt (500 ng/kg).

The values are drawn from patent US20030129684A1, “Method for detecting fungicides” (priority 2000, published 2003).
